pEC50, pIC50: −log10 of the molar value. Several values for one entry are separate records, joined by “and”; a condition that tells them apart may be missing. Equal values may be shown once. Square brackets hold non-standard residues; d marks the D form. Peptide text beside a SMILES is read from it. * marks the point of attachment. dNle = CCCC[C@@H](N)C(=O)O; X1 = [O-][n+]1ccc(CN*)cc1
Key:
[1] = target: T1, Kappa Opioid Receptor (Mus musculus, UniProt P33534); assay: Functional second messenger assay, Gi-mediated inhibition of adenylate cyclase (cAMP, mouse brain); format: biochemical; conditions: for pEC50: Kappa Opioid Receptor Activity EC50, cAMP; for Kappa Opioid Receptor Activity Pct Max: cAMP
T1 construct: (cAMP, mouse brain); from tissue; host or cells: mouse brain

[2] = target: T2, P450 1A2 (Homo sapiens, UniProt P05177); assay: P450 1A2 inhibition; format: in vitro ADME
T2 sequence (P05177 1-516): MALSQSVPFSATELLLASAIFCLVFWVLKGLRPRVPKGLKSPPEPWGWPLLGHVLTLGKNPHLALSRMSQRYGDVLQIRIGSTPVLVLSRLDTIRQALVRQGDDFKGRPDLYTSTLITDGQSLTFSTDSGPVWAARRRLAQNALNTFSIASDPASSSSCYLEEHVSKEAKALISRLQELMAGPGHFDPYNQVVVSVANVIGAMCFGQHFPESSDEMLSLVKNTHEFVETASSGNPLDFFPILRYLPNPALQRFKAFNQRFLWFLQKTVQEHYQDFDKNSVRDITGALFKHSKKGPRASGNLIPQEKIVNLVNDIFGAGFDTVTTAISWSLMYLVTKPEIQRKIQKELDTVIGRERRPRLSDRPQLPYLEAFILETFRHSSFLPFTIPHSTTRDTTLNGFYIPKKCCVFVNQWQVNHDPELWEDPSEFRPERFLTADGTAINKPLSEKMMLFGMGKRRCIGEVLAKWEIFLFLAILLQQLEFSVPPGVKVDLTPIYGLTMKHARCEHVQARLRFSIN
Experimental: (§1) Enzyme assays are well known in the art and CYP450 enzymes from several species have been cloned. Although these cloned enzymes readily allow a particular candidate compound, e.g., a peptide, to be screened, natural sources of CYP450 enzymes, e.g., liver microsomes, are also useful for screening, as is well known in the art. Preferred analogs have a Ki for CYP450 enzymes of about 10 micromolar (uM) or more, whereas more preferred analogs have a Ki for […] of about 100 uM or more. For the purpose of identifying useful compounds of the invention, the IC50 is a useful approximation of the Ki.

[3] = target: T3, P450 3A4 (Homo sapiens, UniProt P08684); assay: P450 3A4/BQ inhibition; format: in vitro ADME
Experimental: as §1

[4] = target: T3, P450 3A4; assay: P450 3A4/BFC inhibition; format: in vitro ADME
Experimental: as §1

[5] = system: cytochrome P450 enzymes; assay: Cytochrome P450 enzyme activities; format: in vitro ADME; conditions: summary of Table 4
Experimental: as §1

[6] = target: T4, Kappa Opioid Receptor (Cavia porcellus, UniProt P41144); assay: Kappa opioid receptor binding, competitive displacement of bound radioligand (guinea pig brain membranes); conditions: for pIC50: Kappa Opioid Receptor Binding IC50, guinea pig brain; for Kappa Opioid Receptor Binding Pct Max: guinea pig brain
T4 construct: from tissue; host or cells: guinea pig brain membranes
Source text: (§2) Receptor assays are well known in the art and kappa opioid receptors from several species have been cloned, as have mu and delta opioid receptors. Kappa opioid receptors as well as mu and delta opioid receptors are classical, seven-transmembrane spanning, G-protein coupled receptors. Although these cloned receptors readily allow a particular candidate compound, e.g., a peptide, to be screened, natural sources of mammalian opioid receptors are also useful for screening, as is well known in the art (Dooley C T et al. Selective ligands for the mu, delta, and kappa opioid receptors identified from a single mixture based tetrapeptide positional scanning combinatorial library. J. Biol. Chem. 273:18848-56, 1998). Thus, screening against both kappa and mu opioid receptors, whether of recombinant or natural origin, may be carried out in order to determine the selectivity of the compound(s) for the kappa relative to the mu opioid receptor.
(§3) Binding affinity refers to the strength of interaction between ligand and receptor. […] These studies can be performed using cloned kappa and mu opioid receptors expressed in stable transfected cell lines or naturally occurring opioid receptors from a receptor-enriched tissue source, as noted above. In these studies, the test compounds (unlabeled ligands) are used at increasing concentrations to displace the specific binding of a radiolabeled ligand that has high affinity and selectivity for the receptor studied. Tritiated U-69,593 and DAMGO can be used as ligands in kappa and mu opioid receptor studies, respectively. Both ligands are commercially available (NEN-Dupont). DAMGO is an acronym for [D-Ala^2, MePhe^4, Gly-ol^5]-enkephalin. The affinity of the radioligands is defined by the concentration of radioligand that results in half-maximal specific binding (KD) in saturation studies. The affinity of the test compound (unlabeled or cold ligand) is determined in competition binding studies by calculating the inhibitory constant (Ki) according to the following formula:
(§4) where IC50=Concentration of the cold ligand that inhibits 50% of the specific binding of the radioligand
(§5) F=free radioligand concentration
(§6) KD=affinity of the radioligand determined in saturation studies.
(§7) When performing these assays under specific conditions with relatively low concentrations of receptor, the calculated Ki for the test compound is a good approximation of its dissociation constant KD, which represents the concentration of ligand necessary to occupy one-half (50%) of the binding sites. […]
(§8) These binding assays employing kappa opioid receptors and mu opioid receptors are straightforward to perform and can be readily carried out with large numbers of compounds to determine whether such compounds are kappa opioid receptor-selective and have high affinity. […]

[7] = target: T5, Mu Opioid Receptor (Rattus norvegicus, UniProt P33535); assay: Mu opioid receptor binding, competitive displacement of bound radioligand (rat brain membranes)
T5 construct: from tissue; host or cells: rat brain membranes
Source text: as §2, §3, §4, §5, §6, §7, §8

[8] = target: P450 2C9 (Homo sapiens, UniProt P11712); assay: P450 2C9 inhibition; format: in vitro ADME
Experimental: as §1

Compound: CCCC[C@@H](NC(=O)[C@@H](Cc1ccccc1)NC(=O)[C@H](N)Cc1ccccc1)C(=O)N[C@H](CCCNC(=N)N)C(=O)NCc1cc[n+]([O-])cc1 [Peptide No. 1, H-D-Phe-D-Phe-D-Nle-D-Arg-NH-4-picolyl-N-oxide] (H-[dF][dF][dNle][dR]-X1)
- pEC50 ([1]; Mean): 9.38
- pEC50 ([1]; individual samples): 9.52 and 9.24
- Kappa Opioid Receptor Activity Pct Max ([1]; Mean): 101.43 Pct
- Kappa Opioid Receptor Activity Pct Max ([1]; individual samples, listed as Peptide 1): 92.46 Pct and 110.41 Pct
- P450 1A2 Inhibition Pct Max ([2]; Mean): 13 Pct
- P450 1A2 Inhibition IC50 ([2]; individual samples): No Fit
- P450 1A2 Inhibition Pct Max ([2]; individual samples): 15 Pct and 10 Pct
- P450 3A4/BQ Inhibition Pct Max ([3]; Mean): 18 Pct
- P450 3A4/BQ Inhibition IC50 ([3]; individual samples): No Fit
- P450 3A4/BQ Inhibition Pct Max ([3]; individual samples): 15 Pct and 21 Pct
- P450 3A4/BFC Inhibition Pct Max ([4]; Mean): 26 Pct
- P450 3A4/BFC Inhibition IC50 ([4]; individual samples): No Fit
- P450 3A4/BFC Inhibition Pct Max ([4]; individual samples): 22 Pct and 17 Pct and 40 Pct
- inhibitory activity on several cytochrome P450 enzyme activities [5]: absence of significant inhibitory activity
- pIC50 ([6]; Mean): ~8.20 and 8.20
- pIC50 ([6]; individual samples): 8.59 and 8.03 and 8.38
- Kappa Opioid Receptor Binding Pct Max ([6]; Mean): 109.4 Pct
- Kappa Opioid Receptor Binding Pct Max ([6]; individual samples, listed as Peptide1): 105.2 Pct and 117.3 Pct and 105.6 Pct
- Mu Opioid Receptor Binding IC50 ([7]; rat brain): too high to determined
- maximal binding inhibition at MOR ([7]; rat brain membranes): 15.5%
- Mu Opioid Receptor Binding Pct Max ([7]; rat brain, Sample 1): 15.5 Pct
- Mu Opioid Receptor Binding IC50 ([7]; rat brain, listed as Peptide1): No Fit
- pIC50 [8]: < 5.00
- P450 2C9 Inhibition Pct Max ([8]; Mean): 26 Pct
- P450 2C9 Inhibition Pct Max ([8]; individual samples): 21 Pct and 31 Pct

From patent US20100029575A1, “N-Oxides of Kappa Receptor Peptides” (priority 2006, published 2010)
